# Data taken from ChEMBL document CHEMBL5625168, “Purine containing carbonucleoside phosphonate analogues as novel chemotype for Plasmodium falciparum Inhibition” (Eur J Med Chem, 2023).
# Assays:
# Plasmodium falciparum = assay: Antimalarial activity against Plasmodium falciparum 3D7 infected in RBC cells assessed as inhibition of parasite growth incubated for 48 hrs by [3H]hypoxanthine incorporation assay; format: functional, organism-based
# [1] = molecular target: T1, IMP-specific 5'-nucleotidase 1 (Plasmodium falciparum (isolate 3D7), UniProt A0A144A134); assay: Binding affinity to recombinant Plasmodium falciparum 3D7 ISN1 assessed as dissociation constant by thermophoresis analysis
# T1 sequence (A0A144A134 whole entry): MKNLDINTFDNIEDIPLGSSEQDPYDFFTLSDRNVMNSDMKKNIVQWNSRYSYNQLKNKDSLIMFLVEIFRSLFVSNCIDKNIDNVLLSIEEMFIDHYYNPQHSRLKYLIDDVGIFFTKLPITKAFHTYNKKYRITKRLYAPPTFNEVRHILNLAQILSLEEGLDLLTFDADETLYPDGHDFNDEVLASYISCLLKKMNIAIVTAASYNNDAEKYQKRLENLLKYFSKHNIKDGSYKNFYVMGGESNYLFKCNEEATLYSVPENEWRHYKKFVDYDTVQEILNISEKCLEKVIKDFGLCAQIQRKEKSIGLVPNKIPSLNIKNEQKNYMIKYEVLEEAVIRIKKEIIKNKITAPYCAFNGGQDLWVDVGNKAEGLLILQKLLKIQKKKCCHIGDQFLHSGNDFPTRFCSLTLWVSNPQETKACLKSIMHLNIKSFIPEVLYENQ
# [2] = molecular target: T2, IMP-specific 5'-nucleotidase 1 (Plasmodium falciparum (isolate 3D7)) (UniProt A0A144A134); assay: Binding affinity to recombinant Plasmodium falciparum 3D7 ISN1 assessed as change in melting temperature at 1 uM by differential scanning fluorimetry method
# T2 sequence (whole entry): T1 sequence (A0A144A134 whole entry)
# [3] = molecular target: T2, IMP-specific 5'-nucleotidase 1 (Plasmodium falciparum (isolate 3D7)); assay: Binding affinity to recombinant Plasmodium falciparum 3D7 ISN1 assessed as change in melting temperature at 100 uM by differential scanning fluorimetry method
# [4] = molecular target: T2, IMP-specific 5'-nucleotidase 1 (Plasmodium falciparum (isolate 3D7)); assay: Binding affinity to recombinant Plasmodium falciparum 3D7 ISN1 assessed as change in melting temperature at 10 uM by differential scanning fluorimetry method
# [5] = Plasmodium falciparum, 3D7, Erythrocyte
Structure (SMILES),IC50 (Plasmodium falciparum; [5]),also measured
Nc1nc2c(ncn2[C@H]2CC[C@](O)(CP(=O)(O)O)C2)c(=O)[nH]1,42 µM,–
Nc1nc2c(ncn2[C@H]2CC[C@@](O)(CP(=O)(O)O)C2)c(=O)[nH]1 (racemic) [listing 1 of 2 here],–,IC50 (Plasmodium falciparum; rbc): 4.4 µM; Kd [1]: 24.1 µM
O=P(O)(O)C[C@]1(O)CC[C@H](n2cnc3c(NCc4ccccc4)nc(Cl)nc32)C1 (racemic),68.3 µM,–
Nc1ncnc2c1ncn2[C@H]1CC[C@@](O)(CP(=O)(O)O)C1,14.7 µM,–
Nc1nc2c(ncn2[C@@H]2CC(CP(=O)(O)O)=C[C@H]2O)c(=O)[nH]1 (racemic),> 100 µM,–
Nc1ncnc2c1ncn2[C@H]1CC[C@@](O)(/C=C/P(=O)(O)O)C1 (racemic),> 100 µM,–
Nc1nc2c(ncn2[C@H]2CC[C@@](O)(CP(=O)(O)O)C2)c(=O)[nH]1 (racemic) [listing 2 of 2 here],–,ΔTm [2]: -2 °C; ΔTm [3]: -5.2 °C; ΔTm [4]: -4.5 °C
Nc1nc2c(ncn2[C@@H]2CC[C@@](O)(CP(=O)(O)O)C2)c(=O)[nH]1,> 100 µM,–
Nc1nc2c(ncn2[C@H]2C=C[C@@](O)(CP(=O)(O)O)C2)c(=O)[nH]1 (racemic),1 µM,ΔTm [2]: -0.9 °C; ΔTm [3]: 4.1 °C; Kd [1]: 19.5 µM; ΔTm [4]: 1.1 °C
COc1nc(N)c2ncn([C@H]3CC[C@@](O)(CP(=O)(O)O)C3)c2n1 (racemic),2.2 µM,–
Nc1nc(NCc2ccccc2)c2ncn([C@H]3CC[C@@](O)(CP(=O)(O)O)C3)c2n1 (racemic),79 µM,–
COc1nc(Cl)nc2c1ncn2[C@H]1CC[C@@](O)(CP(=O)(O)O)C1 (racemic),> 100 µM,–
COC1NC(N)=Nc2c1ncn2[C@H]1CC[C@@](O)(CCP(=O)(O)O)C1 (mixture of isomers),10.2 µM,–
Nc1nc2c(ncn2[C@H]2CC[C@@](O)(CP(=O)(O)O)C2)c(=O)[nH]1,–,IC50 (Plasmodium falciparum; rbc): 44 µM
Nc1ncnc2c1ncn2[C@@H]1CC(CP(=O)(O)O)=C[C@H]1O (racemic),> 100 µM,–
Nc1nc2c(ncn2[C@@H]2CC[C@](O)(CP(=O)(O)O)C2)c(=O)[nH]1,1.3 µM,–
Nc1nc(N)c2ncn([C@H]3CC[C@@](O)(CP(=O)(O)O)C3)c2n1 (racemic),8.8 µM,–
O=P(O)(O)C[C@]1(O)CC[C@H](n2cnc3c(NCc4ccccc4)nc(NCc4ccccc4)nc32)C1 (racemic),41 µM,–
Nc1nc2c(ncn2[C@H]2CC[C@@](O)(CCP(=O)(O)O)C2)c(=O)[nH]1 (racemic),7 µM,–
Nc1nc2c(ncn2[C@H]2CC[C@@](O)(/C=C/P(=O)(O)O)C2)c(=O)[nH]1 (racemic),50 µM,–
